# Results published in article PMC11995724, “Antibiotic target discovery by integrated phenotypic and activity-based profiling of electrophilic fragments” (Cell chemical biology, 2025).
# Structures can show the parent of a compound that is named as a salt.
# Experiment: in vitro
# Conditions: human, hek293t cells
row,SMILES,"viability at 48 h, 25 µM [%]"
1,"CC(Cl)C(=O)N1C2CCC1CC(O)(Cc1ccc(F)cc1F)C2 (stereo not drawn) [7-G18, 2-chloro-1-{3-[(2,4-difluorophenyl)methyl]-3-hydroxy-8-azabicyclo[3.2.1]octan-8-yl}propan-1-one]",60
2,"CC(Cl)C(=O)NCc1ccc(C(=O)Nc2ccc(F)cc2)cc1 (stereo not drawn) [7-G19, 4-[(2-chloropropanamido)methyl]-N-(4-fluorophenyl)benzamide]",76.3
3,"Cc1ccccc1N(CC(=O)N1CCCCC1)C(=O)C(C)Cl (stereo not drawn) [7-G20, 2-chloro-N-(2-methylphenyl)-N-[2-oxo-2-(piperidin-1-yl)ethyl]propanamide]",70.7
4,"CC(Cl)C(=O)NCCn1cccc1 (stereo not drawn) [7-G21, 2-chloro-N-[2-(1H-pyrrol-1-yl)ethyl]propanamide]",87.8
5,"CC(Cl)C(=O)N1CCc2c(nnn2C)C1 (stereo not drawn) [7-G22, 2-chloro-1-{1-methyl-1H,4H,5H,6H,7H-[1,2,3]triazolo[4,5-c]pyridin-5-yl}propan-1-one]",80.5
6,"O=C(CCl)NCC1CN(Cc2ccccc2)CC12CCC2 (stereo not drawn) [7-H03, N-({6-benzyl-6-azaspiro[3.4]octan-8-yl}methyl)-2-chloroacetamide hydrochloride]",0.629
7,"O=C(CCl)NC1CCN(Cc2cscn2)CC1 [7-H04, 2-chloro-N-{1-[(1,3-thiazol-4-yl)methyl]piperidin-4-yl}acetamide hydrochloride]",0.789
8,"CC(Cl)C(=O)NC1CCc2cnn(C(C)C)c2C1 (stereo not drawn) [7-H05, 2-chloro-N-[1-(propan-2-yl)-4,5,6,7-tetrahydro-1H-indazol-6-yl]propanamide]",107
9,"O=C(CCl)NC1CCS(=O)(=O)c2ccc(F)cc21 (stereo not drawn) [7-H06, 2-chloro-N-(6-fluoro-1,1-dioxo-3,4-dihydro-2H-1lambda6-benzothiopyran-4-yl)acetamide]",1.04
10,"COc1cc(CC2CN(C(=O)C(C)Cl)C2)cc(OC)c1 (stereo not drawn) [7-H07, 2-chloro-1-{3-[(3,5-dimethoxyphenyl)methyl]azetidin-1-yl}propan-1-one]",97.3
11,"O=C(CCl)NCc1ccnn1C1CCCC1 [7-H08, 2-chloro-N-[(1-cyclopentyl-1H-pyrazol-5-yl)methyl]acetamide]",0.996
12,"Cc1c(C(=O)N2CCN(C(=O)C(C)Cl)CC2)sc2ccccc12 (stereo not drawn) [7-H09, 2-chloro-1-[4-(3-methyl-1-benzothiophene-2-carbonyl)piperazin-1-yl]propan-1-one]",88.8
13,"O=C(CCl)NCc1ccn(Cc2ccccc2)n1 [7-H10, N-[(1-benzyl-1H-pyrazol-3-yl)methyl]-2-chloroacetamide]",0.654
14,"CC(Cl)C(=O)N1CCCC1c1nc(-c2ccccc2)c(C(C)C)o1 (stereo not drawn) [7-H11, 2-chloro-1-{2-[4-phenyl-5-(propan-2-yl)-1,3-oxazol-2-yl]pyrrolidin-1-yl}propan-1-one]",79.2
15,"CC(c1ccc(S(N)(=O)=O)cc1)N(C)C(=O)CCl (stereo not drawn) [7-H12, 2-chloro-N-methyl-N-[1-(4-sulfamoylphenyl)ethyl]acetamide]",0.618
16,"CC(Cl)C(=O)NC(CC1CCCCC1)c1ncccn1 (stereo not drawn) [7-H13, 2-chloro-N-[2-cyclohexyl-1-(pyrimidin-2-yl)ethyl]propanamide]",91.2
17,"Cc1ccc(N2CCCC2CNC(=O)CCl)cc1 (stereo not drawn) [7-H14, 2-chloro-N-{[1-(4-methylphenyl)pyrrolidin-2-yl]methyl}acetamide]",4.76
18,"CC(Cl)C(=O)N(C)CCn1c(=O)oc2ccccc21 (stereo not drawn) [7-H15, 2-chloro-N-methyl-N-[2-(2-oxo-2,3-dihydro-1,3-benzoxazol-3-yl)ethyl]propanamide]",102
19,"O=C(CCl)NCCc1c[nH]c2c(F)c(F)c(F)cc12 [7-H16, 2-chloro-N-[2-(5,6,7-trifluoro-1H-indol-3-yl)ethyl]acetamide]",1.21
20,"CC(Cl)C(=O)N1CCC(n2nnc3c2CCCC3)CC1 (stereo not drawn) [7-H17, 2-chloro-1-[4-(4,5,6,7-tetrahydro-1H-1,2,3-benzotriazol-1-yl)piperidin-1-yl]propan-1-one]",90
21,"COc1cc(CN(C(=O)CCl)C2CC2)ccc1O [7-H18, 2-chloro-N-cyclopropyl-N-[(4-hydroxy-3-methoxyphenyl)methyl]acetamide]",0.647
22,"CC(Cl)C(=O)NCCC1(CO)CC1 (stereo not drawn) [7-H19, 2-chloro-N-{2-[1-(hydroxymethyl)cyclopropyl]ethyl}propanamide]",90.1
23,"CCN(Cc1ccc(C(F)(F)F)cc1)C(=O)CCl [7-H20, 2-chloro-N-ethyl-N-{[4-(trifluoromethyl)phenyl]methyl}acetamide]",0.708
24,"Cc1cc(CC(C)NC(=O)C(C)Cl)n(-c2ccccc2)n1 (stereo not drawn) [7-H21, 2-chloro-N-[1-(3-methyl-1-phenyl-1H-pyrazol-5-yl)propan-2-yl]propanamide]",80.1
25,"COc1cc(C(C)NC(=O)CCl)sn1 (stereo not drawn) [7-H22, 2-chloro-N-[1-(3-methoxy-1,2-thiazol-5-yl)ethyl]acetamide]",0.822
26,"CC(Cl)C(=O)N1CC(OCc2cccc3ccccc23)C1 (stereo not drawn) [7-I03, 2-chloro-1-{3-[(naphthalen-1-yl)methoxy]azetidin-1-yl}propan-1-one]",96.3

row,SMILES,"viability at 48 h, 25 µM [%]"
1,"CC(Cl)C(=O)N1CC(Cc2cccs2)C1 (stereo not drawn) [7-I04, 2-chloro-1-{3-[(thiophen-2-yl)methyl]azetidin-1-yl}propan-1-one]",88.8
2,"CC(Cl)C(=O)NCC1=CCCOC1 (stereo not drawn) [7-I05, 2-chloro-N-[(5,6-dihydro-2H-pyran-3-yl)methyl]propanamide]",89.9
3,"COCc1noc(CN2CCN(C(=O)C(C)Cl)CC2)n1 (stereo not drawn) [7-I06, 2-chloro-1-(4-{[3-(methoxymethyl)-1,2,4-oxadiazol-5-yl]methyl}piperazin-1-yl)propan-1-one]",88.7
4,"CCOC(=O)c1c2c(nn1C)CCN(C(=O)C(C)Cl)C2 (stereo not drawn) [7-I07, ethyl 5-(2-chloropropanoyl)-2-methyl-2H,4H,5H,6H,7H-pyrazolo[4,3-c]pyridine-3-carboxylate]",92.6
5,"CC(Cl)C(=O)N1CCN(C)C(c2nc(C3CC3)no2)C1 (stereo not drawn) [7-I08, 2-chloro-1-[3-(3-cyclopropyl-1,2,4-oxadiazol-5-yl)-4-methylpiperazin-1-yl]propan-1-one]",84.4
6,"CC(Cl)C(=O)N1CCCC1c1nc(-c2ccccc2)n[nH]1 (stereo not drawn) [7-I09, 2-chloro-1-[2-(3-phenyl-1H-1,2,4-triazol-5-yl)pyrrolidin-1-yl]propan-1-one]",86.8
7,"Cc1ccnc(-c2n[nH]c(C(C)NC(=O)C(C)Cl)n2)c1 (stereo not drawn) [7-I10, 2-chloro-N-{1-[3-(4-methylpyridin-2-yl)-1H-1,2,4-triazol-5-yl]ethyl}propanamide]",71.1
8,"COC1CCN(c2ccc(F)cc2CN(C)C(=O)C(C)Cl)CC1 (stereo not drawn) [7-I11, 2-chloro-N-{[5-fluoro-2-(4-methoxypiperidin-1-yl)phenyl]methyl}-N-methylpropanamide]",94.9
9,"CC(Cl)C(=O)N1CCN(c2nnnn2-c2ccccc2)CC1 (stereo not drawn) [7-I12, 2-chloro-1-[4-(1-phenyl-1H-1,2,3,4-tetrazol-5-yl)piperazin-1-yl]propan-1-one]",74.2
10,"CC(Cl)C(=O)NCc1ccon1 (stereo not drawn) [7-I13, 2-chloro-N-[(1,2-oxazol-3-yl)methyl]propanamide]",94.7
11,"CC(Cl)C(=O)NCc1noc2ccccc12 (stereo not drawn) [7-I14, N-[(1,2-benzoxazol-3-yl)methyl]-2-chloropropanamide]",77.8
12,"CC(Cl)C(=O)NC1CCN(S(C)(=O)=O)C1 (stereo not drawn) [7-I15, 2-chloro-N-(1-methanesulfonylpyrrolidin-3-yl)propanamide]",94.9
13,"CC(=O)N1CCC(NC(=O)C(C)Cl)c2ccc(F)cc2C1 (stereo not drawn) [7-I16, N-(2-acetyl-8-fluoro-2,3,4,5-tetrahydro-1H-2-benzazepin-5-yl)-2-chloropropanamide]",92.3
14,"CC(Cl)C(=O)NCc1ccn(CC(F)F)n1 (stereo not drawn) [7-I17, 2-chloro-N-{[1-(2,2-difluoroethyl)-1H-pyrazol-3-yl]methyl}propanamide]",88.7
15,"CC(Cl)C(=O)N1CCC(Oc2cnc3ccccc3n2)CC1 (stereo not drawn) [7-I18, 2-chloro-1-[4-(quinoxalin-2-yloxy)piperidin-1-yl]propan-1-one]",68.7
16,"CC(Cl)C(=O)N1CCc2ncccc2C1 (stereo not drawn) [7-I19, 2-chloro-1-(5,6,7,8-tetrahydro-1,6-naphthyridin-6-yl)propan-1-one]",98.1
17,"CC(Cl)C(=O)Nc1ccc(C(=O)N(C)C2CCCN(C)C2)cc1 (stereo not drawn) [7-I20, 4-(2-chloropropanamido)-N-methyl-N-(1-methylpiperidin-3-yl)benzamide]",76.4
18,"CC(Cl)C(=O)NCCc1ccnn1C (stereo not drawn) [7-I21, 2-chloro-N-[2-(1-methyl-1H-pyrazol-5-yl)ethyl]propanamide]",92.3
19,"CC(Cl)C(=O)N1CCN(Cc2ccnn2C)CC1 (stereo not drawn) [7-I22, 2-chloro-1-{4-[(1-methyl-1H-pyrazol-5-yl)methyl]piperazin-1-yl}propan-1-one]",99.9
20,"Cc1csc(C2(NC(=O)CCl)CCOCC2)n1 [7-J03, 2-chloro-N-[4-(4-methyl-1,3-thiazol-2-yl)oxan-4-yl]acetamide]",0.732
21,"Cc1ccccc1C(NC(=O)CCl)c1ccccc1C [7-J04, N-[bis(2-methylphenyl)methyl]-2-chloroacetamide]",0.589
22,"CC(Cl)C(=O)NCC(c1ccc(Cl)cc1)n1cccn1 (stereo not drawn) [7-J05, 2-chloro-N-[2-(4-chlorophenyl)-2-(1H-pyrazol-1-yl)ethyl]propanamide]",100
23,"O=C(CCl)NC1CN(c2ccc(C(F)(F)F)cc2)C1 [7-J06, 2-chloro-N-{1-[4-(trifluoromethyl)phenyl]azetidin-3-yl}acetamide]",0.892
24,"CC(Cl)C(=O)N1CCN(CC(F)(F)C(F)F)CC1 (stereo not drawn) [7-J07, 2-chloro-1-[4-(2,2,3,3-tetrafluoropropyl)piperazin-1-yl]propan-1-one]",96.1
25,"O=C(CCl)NC1(c2nc(-c3ccccc3)c[nH]2)CCCC1 [7-J08, 2-chloro-N-[1-(4-phenyl-1H-imidazol-2-yl)cyclopentyl]acetamide hydrochloride]",0.673
